Assay results as given in patent US20080213219A1, “Methods for treatment and management of macular degeneration using 3-(4-amino-1-oxo-1,3-dihydro-isoindol-2-yl)-piperidine-2,6-dione” (Celgene Corporation, priority 2002, published 2008).

Tests used:
TNF-α production [1] = test: Inhibition of TNF-α production following LPS-stimulation of human PBMC; assay type: cell-based; settings: LPS-stimulated PBMC, read-out: IC50 for inhibiting production of TNF-α
From the text: (§1) In a specific embodiment, inhibitions of TNF-α production following LPS-stimulation of human PBMC and human whole blood by 3-(4-amino-1-oxo-1,3-dihydro-isoindol-2-yl)-piperidine-2,6-dione, 4-(amino)-2-(2,6-dioxo-(3-piperidyl))-isoindoline-1,3-dione or thalidomide were investigated in vitro.

TNF-α production [2] = test: Inhibition of TNF-α production following LPS-stimulation of human whole blood; assay type: cell-based; settings: LPS-stimulated human whole blood; read-out: IC50 for inhibiting production of TNF-α
From the text: as §1

[3] = system: TNF-α, IL1β, IL6, IL10 production; test: LPS-stimulated cytokine production by PBMC; assay type: cell-based
macular degeneration = test: Clinical study in patients with macular degeneration, adjuvant to photodynamic therapy with verteporfin; assay type: in vivo; settings: about 10 mg/day for 20 weeks as adjuvant to verteporfin photodynamic therapy
Protocol: Immunomodulatory compounds are administered in an amount of about 0.1 to about 25 mg per day to patients with macular degeneration. In a specific embodiment, clinical studies are performed with forty patients with macular degeneration, who are divided into two groups. The first group receives conventional treatment for closing the leaking choroidal vessels (characteristic of this disease) by photodynamic therapy with verteporfin. Opthalmol 1999 (117): 1329-1345. The second group receives the same conventional therapy with verteporfin and 3-(4-amino-1-oxo-1,3-dihydro-isoindol-2-yl)-piperidine-2,6-dione in an amount of about 10 mg/day as an adjuvant for 20 weeks.
However, the first group without 3-(4-amino-1-oxo-1,3-dihydro-isoindol-2-yl)-piperidine-2,6-dione experiences progressive reperfusion of the ablated vessels several weeks after treatment. Progressive visual loss follows which requires the photodynamic therapy to be repeated.

MD [4] = settings: intravitreal injection, one-year period, patients with MD; cited from earlier work
laser-induced CNVM = settings: intravitreal injection, monkeys; cited from earlier work
MD [5] = settings: cited from earlier work

Compound | IC50 (TNF-α production [1]) | IC50 (TNF-α production [2]) | LPS-stimulated production of IL1β [3] | LPS-stimulated production of IL6 [3] | LPS-stimulated production of TNF-α [3] | production of the anti-inflammatory cytokine IL10 [3] | neovascular cascade / duration of the effects of photodynamic therapy (macular degeneration) | prevention of severe visual loss (MD [4]) | growth of laser-induced CNVM (laser-induced CNVM) | efficacy at treating MD (MD [5]; clinical trial) | rate of adverse effects (MD [5]; in vivo)
Nc1cccc2c1CN(C1CCC(=O)NC1=O)C2=O (centres unmarked) [3-(4-Amino-1-oxo-1,3-dihydro-isoindol-2-yl)-piperidine-2,6-dione] | ~100 nM | ~480 nM | dose-dependent inhibition | dose-dependent inhibition | dose-dependent inhibition | increased production | sufficiently hindered | – | – | – | –
Nc1cccc2c1C(=O)N(C1CCC(=O)NC1=O)C2=O (centres unmarked) [4-(Amino)-2-(2,6-dioxo(3-piperidyl))-isoindoline-1,3-dione] | ~24 nM | ~25 nM | dose-dependent inhibition | dose-dependent inhibition | dose-dependent inhibition | increased production | – | – | – | – | –
C[C@]12C=CC(=O)C=C1CC[C@H]1[C@@H]3C[C@@H](O)[C@](O)(C(=O)CO)[C@@]3(C)C[C@H](O)[C@@]12F [triamcinolone] | – | – | – | – | – | – | – | fails to prevent | inhibits | – | –
interferon-α | – | – | – | – | – | – | – | – | – | ineffective | high rate of adverse effects
